Laboratory results from ChEMBL document CHEMBL1201862, “PubChem BioAssay data set” (2004).
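Cultured in 96-well plates, cells were exposed to test compound for 48 hours across five concentrations. GI50 is the concentration that inhibits growth by half.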 Calls of active or inactive are those of the source. Cut-off read from the data, not from the text of the source: active = GI50 up to about 1.1 µM and inactive = higher.

What was measured:
Test in all cases: growth of human tumour cells (NCI), 48 h
ACHN = tested on: ACHN
COLO 205 = tested on: COLO 205
EKVX = tested on: EKVX
HCT-116 = tested on: HCT-116
HCT-15 = tested on: HCT-15
MCF7 = tested on: MCF7
MDA-MB-231 = tested on: MDA-MB-231
MOLT-4 = tested on: MOLT-4
NCI-H23 = tested on: NCI-H23
PC-3 = tested on: PC-3
RPMI-8226 = tested on: RPMI-8226
SF-268 = tested on: SF-268
SK-MEL-28 = tested on: SK-MEL-28
SK-MEL-2 = tested on: SK-MEL-2
SK-MEL-5 = tested on: SK-MEL-5
SN12C = tested on: SN12C
SW-620 = tested on: SW-620
UACC-62 = tested on: UACC-62
SF-539 = tested on: SF-539
T47D = tested on: T47D

Row | Compound | GI50 (ACHN) | GI50 (COLO 205) | GI50 (EKVX) | GI50 (HCT-116) | GI50 (HCT-15) [µM] | GI50 (MCF7) | GI50 (MDA-MB-231) | GI50 (MOLT-4) | GI50 (NCI-H23) | GI50 (PC-3) | GI50 (RPMI-8226) | GI50 (SF-268) | GI50 (SK-MEL-28) | GI50 (SK-MEL-2) | GI50 (SK-MEL-5) | GI50 (SN12C) | GI50 (SW-620) | GI50 (UACC-62) | GI50 (SF-539) | GI50 (T47D)
1 | Oc1ccc2ccccc2c1NCn1nc(CCCCCCCCc2nn(CNc3c(O)ccc4ccccc34)c(=S)o2)oc1=S | > 100 µM (inactive) | > 100 µM (inactive) | > 100 µM (inactive) | 6.49 µM (inactive) | 43.1 | > 100 µM (inactive) | > 100 µM (inactive) | > 100 µM (inactive) | > 100 µM (inactive) | > 100 µM (inactive) | 39.6 µM (inactive) | > 100 µM (inactive) | > 100 µM (inactive) | > 100 µM (inactive) | 44.5 µM (inactive) | > 100 µM (inactive) | > 100 µM (inactive) | > 100 µM (inactive) | – | –
2 | CN(C)CCC(/C=C/c1ccccc1)=N\Nc1ccc(Cl)c(Cl)c1 | 1.92 µM (inactive) | 2.6 µM (inactive) | 3.66 µM (inactive) | 3.56 µM (inactive) | 3.6 | – | – | 2.44 µM (inactive) | 2.81 µM (inactive) | – | 3.44 µM (inactive) | 2.56 µM (inactive) | 9.33 µM (inactive) | 2.49 µM (inactive) | 4.49 µM (inactive) | 3.52 µM (inactive) | 3.45 µM (inactive) | 2.55 µM (inactive) | 2.2 µM (inactive) | –
3 | CC(=O)c1c(-c2ccc(Cl)cc2)c(C#N)c(=S)n(C2OC(CO)C(O)C(O)C2O)c1C (stereo not given) | 42.3 µM (inactive) | 32.5 µM (inactive) | – | 47 µM (inactive) | 82 | – | 37 µM (inactive) | 21.6 µM (inactive) | 45.4 µM (inactive) | 31.5 µM (inactive) | – | 53.3 µM (inactive) | 34.1 µM (inactive) | 28.2 µM (inactive) | 37.2 µM (inactive) | 52.6 µM (inactive) | – | 22.3 µM (inactive) | 46.7 µM (inactive) | 49.3 µM (inactive)
4 | COc1ccc2nc(-n3c(/C=C/c4ccccc4O)nc4ccccc4c3=O)sc2c1 | > 100 µM (inactive) | > 100 µM (inactive) | 8.51 µM (inactive) | 25.5 µM (inactive) | 60.1 | 47.5 µM (inactive) | > 100 µM (inactive) | 32.9 µM (inactive) | 47.6 µM (inactive) | 53.5 µM (inactive) | 24.9 µM (inactive) | > 100 µM (inactive) | 31.4 µM (inactive) | 88.3 µM (inactive) | 19.7 µM (inactive) | – | > 100 µM (inactive) | 61.5 µM (inactive) | – | –
5 | CSc1nc(C)cc(N(C)c2ccccc2)n1 | 58.6 µM (inactive) | 34.8 µM (inactive) | 37.8 µM (inactive) | 22.9 µM (inactive) | 38.4 | 24.9 µM (inactive) | 34.8 µM (inactive) | 29.7 µM (inactive) | 27.9 µM (inactive) | 55.5 µM (inactive) | > 100 µM (inactive) | 43.8 µM (inactive) | 46.8 µM (inactive) | 40 µM (inactive) | 25.6 µM (inactive) | 41.8 µM (inactive) | 54.5 µM (inactive) | 35.3 µM (inactive) | 28 µM (inactive) | –
6 | N#Cc1c(N2CCOCC2)ncn(-c2ccc(Cl)cc2)c1=O | > 100 µM (inactive) | > 100 µM (inactive) | > 100 µM (inactive) | > 100 µM (inactive) | > 100 | > 100 µM (inactive) | – | > 100 µM (inactive) | > 100 µM (inactive) | > 100 µM (inactive) | > 100 µM (inactive) | – | > 100 µM (inactive) | > 100 µM (inactive) | > 100 µM (inactive) | > 100 µM (inactive) | > 100 µM (inactive) | > 100 µM (inactive) | > 100 µM (inactive) | > 100 µM (inactive)
7 | Cc1nnc(N/N=C2/C(=O)Nc3ccccc32)nc1O | > 100 µM (inactive) | – | > 100 µM (inactive) | > 100 µM (inactive) | > 100 | > 100 µM (inactive) | > 100 µM (inactive) | > 100 µM (inactive) | – | > 100 µM (inactive) | > 100 µM (inactive) | > 100 µM (inactive) | > 100 µM (inactive) | > 100 µM (inactive) | – | > 100 µM (inactive) | > 100 µM (inactive) | > 100 µM (inactive) | > 100 µM (inactive) | –
8 | CO[C@H]1SC[C@H](OC(C)=O)[C@H](OC(C)=O)[C@H]1OC(C)=O | > 100 µM (inactive) | > 100 µM (inactive) | > 100 µM (inactive) | > 100 µM (inactive) | > 100 | > 100 µM (inactive) | > 100 µM (inactive) | > 100 µM (inactive) | > 100 µM (inactive) | – | > 100 µM (inactive) | > 100 µM (inactive) | > 100 µM (inactive) | > 100 µM (inactive) | > 100 µM (inactive) | > 100 µM (inactive) | > 100 µM (inactive) | 93.8 µM (inactive) | > 100 µM (inactive) | > 100 µM (inactive)
9 | O=S(=O)(N/N=C/c1ccc(Cl)cc1Cl)c1ccccc1 | > 100 µM (inactive) | 62.4 µM (inactive) | > 100 µM (inactive) | 49 µM (inactive) | > 100 | – | – | 34.7 µM (inactive) | 69.7 µM (inactive) | – | 84.7 µM (inactive) | 63.1 µM (inactive) | 67.8 µM (inactive) | > 100 µM (inactive) | > 100 µM (inactive) | 27.4 µM (inactive) | 78.9 µM (inactive) | > 100 µM (inactive) | 77.1 µM (inactive) | –
10 | COc1ccccc1C(=O)c1c(N2CCCCC2)c(=O)c1=O | > 100 µM (inactive) | > 100 µM (inactive) | > 100 µM (inactive) | > 100 µM (inactive) | > 100 | > 100 µM (inactive) | > 100 µM (inactive) | > 100 µM (inactive) | > 100 µM (inactive) | > 100 µM (inactive) | 92.7 µM (inactive) | > 100 µM (inactive) | > 100 µM (inactive) | > 100 µM (inactive) | > 100 µM (inactive) | > 100 µM (inactive) | > 100 µM (inactive) | > 100 µM (inactive) | > 100 µM (inactive) | –
11 | CCOP(=O)(OCC)/C(C#N)=C/c1[nH]cnc1C | > 100 µM (inactive) | > 100 µM (inactive) | > 100 µM (inactive) | > 100 µM (inactive) | > 100 | > 100 µM (inactive) | > 100 µM (inactive) | > 100 µM (inactive) | > 100 µM (inactive) | > 100 µM (inactive) | > 100 µM (inactive) | > 100 µM (inactive) | > 100 µM (inactive) | > 100 µM (inactive) | > 100 µM (inactive) | > 100 µM (inactive) | > 100 µM (inactive) | > 100 µM (inactive) | 49.5 µM (inactive) | –
12 | Cc1cc2c(c(=O)n1C)SCC2 | > 100 µM (inactive) | > 100 µM (inactive) | – | > 100 µM (inactive) | > 100 | – | > 100 µM (inactive) | > 100 µM (inactive) | > 100 µM (inactive) | > 100 µM (inactive) | > 100 µM (inactive) | > 100 µM (inactive) | > 100 µM (inactive) | > 100 µM (inactive) | > 100 µM (inactive) | > 100 µM (inactive) | > 100 µM (inactive) | > 100 µM (inactive) | – | > 100 µM (inactive)
